These compounds were tested against T1, human BKαβ1 channels (Homo sapiens, UniProt Q12791) (assay: BK current in CHO cells expressing human BKαβ1 (PatchXpress whole-cell patch clamp), EC100). Conditions: drug concentration causing 100% increase of BK current.
T1 construct: expressed in transfected cells; host or cells: CHO cells (G418 and hygromycin selection)
T1 sequence (Q12791 whole entry): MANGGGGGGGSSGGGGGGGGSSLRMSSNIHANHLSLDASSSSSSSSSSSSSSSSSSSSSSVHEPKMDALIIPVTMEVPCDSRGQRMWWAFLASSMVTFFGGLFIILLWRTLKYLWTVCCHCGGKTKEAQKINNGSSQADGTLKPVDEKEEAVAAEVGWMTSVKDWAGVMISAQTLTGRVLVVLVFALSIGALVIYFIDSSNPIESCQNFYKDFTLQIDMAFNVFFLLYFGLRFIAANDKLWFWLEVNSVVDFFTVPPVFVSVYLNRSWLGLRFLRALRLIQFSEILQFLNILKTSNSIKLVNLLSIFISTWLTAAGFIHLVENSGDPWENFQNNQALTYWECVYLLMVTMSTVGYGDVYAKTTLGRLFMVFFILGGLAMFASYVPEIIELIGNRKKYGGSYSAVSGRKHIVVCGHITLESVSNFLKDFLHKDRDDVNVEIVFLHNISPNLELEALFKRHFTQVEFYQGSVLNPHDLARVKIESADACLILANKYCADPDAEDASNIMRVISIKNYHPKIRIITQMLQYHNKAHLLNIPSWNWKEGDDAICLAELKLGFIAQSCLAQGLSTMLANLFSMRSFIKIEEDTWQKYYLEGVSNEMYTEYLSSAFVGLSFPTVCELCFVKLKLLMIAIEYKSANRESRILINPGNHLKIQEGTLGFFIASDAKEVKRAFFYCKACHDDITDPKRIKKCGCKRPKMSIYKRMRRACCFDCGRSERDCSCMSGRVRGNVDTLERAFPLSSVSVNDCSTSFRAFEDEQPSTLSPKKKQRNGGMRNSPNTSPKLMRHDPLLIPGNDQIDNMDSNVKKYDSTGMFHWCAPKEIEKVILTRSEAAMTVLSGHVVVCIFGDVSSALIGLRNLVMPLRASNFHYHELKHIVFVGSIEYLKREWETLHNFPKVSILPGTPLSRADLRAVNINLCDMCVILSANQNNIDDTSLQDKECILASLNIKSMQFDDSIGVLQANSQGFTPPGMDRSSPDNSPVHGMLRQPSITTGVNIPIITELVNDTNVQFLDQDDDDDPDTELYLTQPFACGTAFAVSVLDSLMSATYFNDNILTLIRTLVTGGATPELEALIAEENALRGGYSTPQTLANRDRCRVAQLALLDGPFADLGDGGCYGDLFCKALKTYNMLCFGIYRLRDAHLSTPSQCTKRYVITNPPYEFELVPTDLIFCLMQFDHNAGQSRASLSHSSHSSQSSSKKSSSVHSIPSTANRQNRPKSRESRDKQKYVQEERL
T1 sequence (Q16558 whole entry partner): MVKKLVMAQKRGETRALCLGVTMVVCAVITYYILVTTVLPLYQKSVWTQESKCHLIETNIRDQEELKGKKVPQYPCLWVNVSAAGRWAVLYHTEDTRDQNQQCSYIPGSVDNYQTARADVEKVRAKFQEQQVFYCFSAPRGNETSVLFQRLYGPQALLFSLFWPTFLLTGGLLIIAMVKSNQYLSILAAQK
Assay type: cell-based
Experimental: Methods for Testing Compounds on Human BKαβ1 Channels Expressed Cho Cells
CHO cells expressing human BKαβ1 were cultured in T75 or 6 well cell culture cluster. Medium: DMEM/F12+10% FBS+0.5 mg/mL G418/genetecin+0.1 mg/mL Hygromycin. Split cells every 3-4 days at 80-90% confluence. Use cells for experiments 60-72 hrs after re-passage and at ˜90% confluence.
Trypsin solution (0.05% Trypsin+0.1% EDTA), Ca^2+ free PBS and culture medium were warmed to 37° C. Inspect the T75 flask for cell confluence. Remove culture medium and add warm Ca^2+ free PBS to wash cells. Remove Ca^2+ free PBS and add warm Trypsin solution. Put the T75 flask back to 37° C. incubator for about 4.5 minutes. Stop Trypsin activity by adding culture medium. Spin the cells down. Suspend cells in 120-160 μL external solution for BK current recording and use the cells as soon as possible.
PatchXpress Sealchip 16 electrodes (AVIVA Biosciences) and PatchXpress 7000A (Axon Instruments, Inc) were used for BK current recording. Flat bottom 1.5 mL glass vial (HiPep Laboratories) were used for containing external solutions (±compounds). The holes in the sealchip (equivalent to patch electrode) had resistance about 1.5 MΩ. Cell membrane capacitance was compensated and access resistance was also compensated by 40%. Voltage-clamp protocol: Holding voltage=0 mV. Record BK current during 200-ms steps between +80 to +120 mV in 10 mV increments and 2 sec inter-pulse interval. On-line digital leak subtraction was performed by a P/−4 procedure. After whole-cell configuration was established, 2 minute was used to optimize access resistance. Then the chamber was washed with control bath solution for 1 minute to remove excessive cells. Control bath solution was added with robotic pipette and control BK current was recorded after 1 minute equilibrium time. For each drug concentration, 45 μL drug solution was added three times with “suction before adding” mode which left old solution. For each drug addition, 1 minute equilibrium time was given. BK current was measured at each drug concentrations (usually within 3.5 minutes after first drug addition). Calculate % change of BK current at the voltage step when the control BK current first exceeding 200 pA. If the control BK current was less than 200 pA at 120 mV, the cell was not used. % changes were calculated as 100*(Id−Ic)/Ic, where Id was the current amplitude in the presence of drug and Ic was the control current amplitude.
EC100 was defined as the drug concentration causing 100% increase of BK current calculated by the method described above. EC100 was determined by the data points just below and above 100%. % Increase of BK current was plotted against log [drug concentration]. A straight line connected two data points flanking 100%. From this straight line, the concentration corresponding to 100% increase of BK current was determined as EC100.
Compounds were dissolved in DMSO to make 10 mM stock solutions. Subsequent dilutions were made with external solution. The testing drug concentrations were 0.1, 0.3, 1, 3 and 10 μM depending on the potency of compounds. The highest DMSO concentration was 0.1%. External solution (in mM): 140 NaCl, 4 KCl, 1 MgCl2, 2 CaCl2, 10 Glucose, 10 HEPES; pH=7.4 with NaOH. Internal solution (in mM): 140 KCl, 5 EGTA, 1 MgCl2, 5 MgATP, 0.2 CaCl2, 5 HEPES; pH=7.2 with KOH.
For CCOc1ccc(-c2cc(OC3(C(=O)O)CC3)nc(-c3ccc(F)cc3)n2)c(C)c1 [Example 897], the EC100 was 0.62 µM.
In the case of COc1ccc(Cl)c(-c2cc(OC3(C(=O)O)CC3)nc(-c3ccc(F)cc3)n2)c1 [Example 900], the EC100 is reported as 0.36 µM.
Cc1cc(C(F)(F)F)ccc1-c1cc(OC2(C(=O)O)CC2)nc(-c2ccc(F)cc2)n1 [Example 905] was tested, and the EC100 was 0.14 µM.
In the case of Cc1ccc(C(F)(F)F)cc1-c1cc(OC2(C(=O)O)CC2)nc(-c2ccc(F)cc2)n1 [Example 906], the EC100 is reported as 0.15 µM.
Compound N#Cc1cc(Cl)ccc1-c1cc(OC2(C(=O)O)CC2)nc(-c2ccc(Cl)cc2)n1 [Example 918] has an EC100 of 0.2 µM.
COCc1cc(Cl)ccc1-c1cc(OC2(C(=O)O)CC2)nc(-c2ccc(Cl)cc2)n1 [Example 921] gave an EC100 of 0.1 µM.
Work on CCOc1cc(F)cc(-c2nc(-c3ccc(F)cc3)nc(OC3(C(=O)[O-])CC3)c2C)c1.[Na+] [Example 978] yielded an EC100 of 0.12 µM.
Work on COc1ccc(-c2nc(-c3ccc(F)cc3)nc(OC3(C(=O)[O-])CC3)c2C)cc1Cl.[Na+] [Example 982] yielded an EC100 of 0.1 µM.
Work on COc1cc(-c2nc(-c3ccc(F)cc3)nc(OC3(C(=O)[O-])CC3)c2C)ccc1Cl.[Na+] [Example 993] yielded an EC100 of 0.13 µM.
Work on COc1cc(-c2nc(-c3ccc(F)cc3)nc(OC3(C(=O)[O-])CC3)c2C)ccc1F.[Na+] [Example 996] yielded an EC100 of 0.58 µM.
Compound Cc1cc(-c2nc(-c3ccc(F)cc3)nc(OC3(C(=O)[O-])CC3)c2C)ccc1F.[Na+] [Example 999] has an EC100 of 0.14 µM.
Work on Cc1cc(F)cc(-c2nc(-c3ccc(F)cc3)nc(OC3(C(=O)[O-])CC3)c2C)c1.[Na+] [Example 1000] yielded an EC100 of 0.14 µM.
In the case of Cc1c(OC2(C(=O)[O-])CC2)nc(-c2ccc(F)cc2)nc1-c1ccc(Cl)s1.[Na+] [Example 1007], the EC100 is reported as 0.1 µM.
Work on Cc1c(OC2(C(=O)O)CC2)nc(-c2ccc(Cl)cc2)nc1-c1ccc(F)cc1 [Example 1015] yielded an EC100 of 0.34 µM.
Compound COc1ccc(-c2nc(-c3ccc(Cl)cc3)nc(OC3(C(=O)O)CC3)c2C)cc1 [Example 1016] has an EC100 of 0.5 µM.
Work on CCOCc1ccc(-c2cc(OC3(C(=O)O)CC3)nc(-c3ccc(Cl)cc3)n2)c(C)c1 [Example 1034] yielded an EC100 of 0.17 µM.
Cc1cc(F)ccc1-c1cc(OC2(C(=O)O)CC2)nc(-c2ccc(F)cc2)c1 [Example 1087] showed an EC100 of 0.36 µM.
For Cc1cc(Cl)ccc1-c1nc(OC2(C(=O)[O-])CC2)nc(-c2ccc(Cl)cc2)n1.[Na+] [Example 1088], the EC100 was 0.14 µM.
With Cc1cc(C(F)(F)F)ccc1-c1nc(OC2(C(=O)O)CC2)nc(-c2ccc(Cl)cc2)n1 [Example 1092] the EC100 was 0.02 µM.
In the case of Cc1ccc(C(F)(F)F)cc1-c1nc(OC2(C(=O)[O-])CC2)nc(-c2ccc(Cl)cc2)n1.[Na+] [Example 1093], the EC100 is reported as 0.04 µM.
Cc1cc(OC(F)(F)F)ccc1-c1nc(OC2(C(=O)[O-])CC2)nc(-c2ccc(Cl)cc2)n1.[Na+] [Example 1094] gave an EC100 of 0.03 µM.
O=C([O-])C1(Oc2cc(N3CCc4ccc(F)cc4C3)nc(-c3ccc(Cl)cc3)n2)CC1.[Na+] [Example 1095] was tested, and the EC100 was 0.3 µM.
O=C([O-])C1(Oc2cc(N3CCc4cc(F)ccc4C3)nc(-c3ccc(Cl)cc3)n2)CC1.[Na+] [Example 1096] gave an EC100 of 0.11 µM.
Compound CN(Cc1cccc(F)c1)c1cc(OC2(C(=O)[O-])CC2)nc(-c2ccc(F)cc2)n1.[Na+] [Example 1098] has an EC100 of 0.11 µM.
For COc1ccc(CN(C)c2cc(OC3(C(=O)O)CC3)nc(-c3ccc(F)cc3)n2)cc1 [Example 1100], the EC100 was 0.38 µM.
In the case of O=C([O-])C1(Oc2cc(N3CCc4cc(F)ccc43)nc(-c3ccc(F)cc3)n2)CC1.[Na+] [Example 1108], the EC100 is reported as 0.36 µM.
Compound O=C([O-])C1(Oc2cc(N3CCc4ccc(F)cc4C3)nc(-c3ccc(F)cc3)n2)CC1.[Na+] [Example 1109] has an EC100 of 0.07 µM.
For O=C([O-])C1(Oc2cc(N3CCc4ccc(Cl)cc4C3)nc(-c3ccc(F)cc3)n2)CC1.[Na+] [Example 1111], the EC100 was 0.12 µM.
In the case of CCCOC1CCN(c2nc(-c3ccc(Cl)cc3)nc(OC3(C(=O)O)CC3)c2C)CC1 [Example 1114], the EC100 is reported as 0.41 µM.
Compound COCC1CCN(c2nc(-c3ccc(Cl)cc3)nc(OC3(C(=O)O)CC3)c2C)CC1 [Example 1115] has an EC100 of 1.74 µM.
CCOCC1CCN(c2nc(-c3ccc(Cl)cc3)nc(OC3(C(=O)O)CC3)c2C)CC1 [Example 1116] gave an EC100 of 1.31 µM.
For Cc1c(OC2(C(=O)O)CC2)nc(-c2ccc(Cl)cc2)nc1N1CCC(OCC2CC2)CC1 [Example 1118], the EC100 was 0.42 µM.
CCCCOC1CCN(c2nc(-c3ccc(Cl)cc3)nc(OC3(C(=O)[O-])CC3)c2C)CC1.[Na+] [Example 1119] showed an EC100 of 0.73 µM.
CCOCC1CCN(c2nc(-c3ccc(F)cc3)nc(OC3(C(=O)O)CC3)c2C)CC1 [Example 1122] showed an EC100 of 0.9 µM.
Work on COCCC1CCN(c2nc(-c3ccc(F)cc3)nc(OC3(C(=O)O)CC3)c2C)CC1 [Example 1123] yielded an EC100 of 0.95 µM.
With CCCCOC1CCN(c2nc(-c3ccc(F)cc3)nc(OC3(C(=O)[O-])CC3)c2C)CC1.[Na+] [Example 1125] the EC100 was 0.5 µM.
In the case of COCCCC1CCN(c2nc(-c3ccc(F)cc3)nc(OC3(C(=O)[O-])CC3)c2C)CC1.[Na+] [Example 1126], the EC100 is reported as 0.77 µM.
With CCCOC1CCN(c2nc(-c3ccc(Cl)cc3)nc(OC3(C(=O)[O-])CC3)c2F)CC1.[Na+] [Example 1129] the EC100 was 0.61 µM.
In the case of CCOCC1CCN(c2nc(-c3ccc(Cl)cc3)nc(OC3(C(=O)[O-])CC3)c2F)CC1.[Na+] [Example 1131], the EC100 is reported as 0.23 µM.
COCCC1CCN(c2nc(-c3ccc(Cl)cc3)nc(OC3(C(=O)[O-])CC3)c2F)CC1.[Na+] [Example 1132] was tested, and the EC100 was 0.41 µM.
Work on CCCOCC1CCN(c2nc(-c3ccc(Cl)cc3)nc(OC3(C(=O)[O-])CC3)c2F)CC1.[Na+] [Example 1133] yielded an EC100 of 1.29 µM.
Compound CCCOC1CCN(c2nc(OC3(C(=O)O)CC3)cc(-c3ccc(C)c(Cl)c3)n2)CC1 [Example 1148] has an EC100 of 0.13 µM.
CCCOC1CCN(c2nc(OC3(C(=O)O)CC3)cc(-c3ccc(F)c(C(F)(F)F)c3)n2)CC1 [Example 1153] gave an EC100 of 0.34 µM.
For CC(C)COC1CCN(c2nc(OC3(C(=O)O)CC3)cc(-c3ccc(Cl)cc3)n2)CC1 [Example 1182], the EC100 was 1.03 µM.
With O=C(O)C1(Oc2cc(-c3ccc(Cl)cc3)nc(N3CCc4ccc(F)cc4C3)n2)CC1 [Example 1191] the EC100 was 0.02 µM.
For O=C(O)C1(Oc2cc(-c3ccc(Cl)cc3)nc(N3CCc4cc(F)ccc4C3)n2)CC1 [Example 1192], the EC100 was 0.04 µM.
With CCOCC1CCN(c2nc(OC3(C(=O)[O-])CC3)cc(-c3ccc(Cl)s3)n2)CC1.[Na+] [Example 1197] the EC100 was 0.15 µM.
With O=C([O-])C1(Oc2cc(-c3ccc(Cl)s3)nc(N3CCc4ccc(F)cc4C3)n2)CC1.[Na+] [Example 1202] the EC100 was 0.2 µM.
For O=C(O)C1(Oc2cc(-c3ccc(Cl)s3)nc(N3CCc4cc(F)ccc4C3)n2)CC1 [Example 1203], the EC100 was 0.01 µM.
COCCC1CCN(c2nc(OC3(C(=O)O)CC3)cc(-c3cc(C)c(Cl)s3)n2)CC1 [Example 1208] was tested, and the EC100 was 0.96 µM.
COCCCC1CCN(c2nc(OC3(C(=O)[O-])CC3)cc(-c3cc(C)c(Cl)s3)n2)CC1.[Na+] [Example 1215] was tested, and the EC100 was 0.39 µM.
CCOC1CCN(c2nc(OC3(C(=O)O)CC3)cc(-c3cc(Cl)c(Cl)s3)n2)CC1 [Example 1216] was tested, and the EC100 was 0.54 µM.
